Reference: US20060246104A1, “Stable rgd peptidomimetic composition” (priority 2003, published 2006)

Assays:
[1] = tested on: 3T3 fibroblasts; assay: Cell adhesion assay (cell area coverage on surface-immobilized substrates); type: cell-based; details: substance surface-immobilized on tissue culture plastic; 3T3 cells, 24 hrs; relative to untreated tissue culture plastic
Excerpt: For this study, we immobilized AAGPAHA and the peptide GRGDSP on dextran-coated tissue culture plastic dishes in a series of steps shown in FIGS. 2-4. Multi-well cell culture dishes were first surface-aminated by adsorbing poly-lysine (FIG. 2). Dextran was then immobilized on these surfaces (FIG. 3) using reported methods (Massia, Biomaterials 21:2753-61, 2000). AAGPAHA and GRGDSP were then surface-immobilized on dextran-coated tissue culture plastic (FIG. 4) using reported methods (Massia, J Biomed Mater Res 56:390-99, 2001). Dextran substrates were activated by oxidation of the glucose subunits (Glc) with sodium metaperiodate to convert Glc subunits to […]. […]
Cell area coverage assays were performed to assess the extent of 3T3 cell adhesion and spreading on all substrates. […] Following incubation, samples were fixed (3.8% formaldehyde in phosphate buffered saline (PBS) for 5 min. and stained with 0.1% aqueous toluidine blue (5 min). Stained cells were then examined using phase contrast or stereomicroscopy (Leica) at 100× magnification. Three random 100× fields were selected for each substrate for analysis. The extent of cell adhesion was determined for each captured digital image by calculating a percentage of cell area coverage using digital image analysis software. Final data were presented as a percentage of control adhesion. […]

[2] = tested on: trypsin; assay: Enzymatic stability in trypsin solution, MALDI-TOF mass spectrometry; type: in vitro ADME; details: for decrease in mass peak size after treatment with trypsin / mass peak intensity after trypsin exposure / degradation after prolonged trypsin exposure / mass peak intensity after prolonged trypsin exposure: 0.05 mM trypsin; for decrease in mass peak size after treatment with trypsin / mass peak intensity after trypsin exposure / mass peak intensity before trypsin exposure: 1 hr, 37° C.; for mass peak intensity after trypsin exposure / mass peak intensity before trypsin exposure: HEPES pH 8, 0.4 mM; for degradation after prolonged trypsin exposure / mass peak intensity after prolonged trypsin exposure / mass peak intensity before prolonged trypsin exposure: 16 hrs, room temperature; for mass peak intensity before trypsin exposure / mass peak intensity before prolonged trypsin exposure: control without trypsin
Procedure: GRGDSP and AAGPAHA were mixed with trypsin solution in HEPES buffer (10 mM, pH=8) to a final solution of 0.4 mM peptide and 0.05 mM (0.12%) trypsin and incubated at 37° C. for 1 hr. In a control experiment, both peptides were dissolved in the same buffer without trypsin at the same final concentrations and incubated at 37° C. for 1 hr. Similarly, in another set of experiments, the same samples were incubated at room temperature overnight. At the end of the incubation period, trypsin activity was quenched by adding inhibitor; and the samples were analyzed by MALDI-TOF mass spectrometry to assess the extent of degradation.

[3] = tested on: 3T3 cell adhesion and spreading (integrin-mediated); assay: Cell adhesion inhibition assay (soluble competitor against grafted substrate); type: cell-based; details: soluble GRGDSP 1 mg/mL, 3T3 cells, 24 hrs
Procedure: The cell line utilized in these studies were 3T3 fibroblasts (ATCC # CRL-6476, Manassas, Va.). 3T3 cells were maintained in Dulbecco's modified Eagle medium (DMEM) with 10% fetal bovine serum (FBS) at 37° C. in saturated humidity. All cell culture media and reagents were obtained from Life Technologies, Inc. (Rockville, Md.).
Cell area coverage assays were performed to assess the extent of 3T3 cell adhesion and spreading on all substrates. 3T3 cells were seeded on 24-well culture dishes (15,000 cells/well) and incubated for 24 hrs. Following incubation, samples were fixed (3.8% formaldehyde in phosphate buffered saline (PBS) for 5 min. and stained with 0.1% aqueous toluidine blue (5 min). Stained cells were then examined using phase contrast or stereomicroscopy (Leica) at 100× magnification. Three random 100× fields were selected for each substrate for analysis. The extent of cell adhesion was determined for each captured digital image by calculating a percentage of cell area coverage using digital image analysis software. Final data were presented as a percentage of control adhesion.
The percentage of control adhesion was calculated by multiplying the ratio of % area coverage on dextran-coated, peptide-grafted, or peptidomimetic-grafted substrates to % cell area coverage on untreated tissue culture plastic by 100. […]

Molecule	percentage of control adhesion (cell area coverage) [1]	decrease in mass peak size after treatment with trypsin [2]	mass peak intensity after trypsin exposure [2]	degradation after prolonged trypsin exposure [2]	mass peak intensity after prolonged trypsin exposure [2]	mass peak intensity before trypsin exposure [2]	mass peak intensity before prolonged trypsin exposure [2]	percentage of control adhesion on surface-immobilized AAGPAHA in presence of soluble compound [3]	percentage of control adhesion on surface-immobilized AAGPAHA in presence of soluble compound ([3]; listed as RGD peptide)
N=C(N)NCCCC(N)C(=O)NCCCCC(N)C(=O)O (stereo not shown) [AAGPAHA, 2-amino-6-[(2-amino-5{guanidino}pentanoyl)amino]hexanoic acid]	105.9±12.8 % control	no significant change	the same	highly resistant to trypsin-mediated degradation	the same	1.2×10^4	1.2×10^4		
GRGDSP	124.3±4.1 % control	73%	4.0×10^3	about 98%	3.0×10^2	1.5×10^4	1.5×10^4	5.7%±6.9%	decreased cell coverage
